Earlier results, collected in patent US9492541B2, “Phenylepherine containing dosage form” (SOVEREIGN PHARMACEUTICALS, LLC, priority 2004, dated 2016).

Settings: oral

Q: With CNC[C@H](O)c1cccc(O)c1 [phenylepherine] as the molecule, how does the “period over which a single dose provides a therapeutically effective plasma concentration” value read?
A: Its value is 2.5 ± 0.7 h.
